Experimental data taken from patent US11643405B2, “Compound for treatment or prevention of liver diseases” (JIANGSU ATOM BIOSCIENCE AND PHARMACEUTICAL CO., LTD., priority 2018, dated 2023).
Converted amounts (≈) assume the structure as drawn. Like-named read-outs stand apart in the source and are kept apart here.

Assays:
[1] = Determination of compound solubility in PBS buffer (LC-MS/MS); assay type: physicochemical; conditions: for solubility at 2 h: PBS buffer, aqueous buffer, kinetic from dmso stock, stirred 2 hours, read-out: Solubility
Method: The test compounds were 7, 67 and 85, respectively; the control compound was silymarin, purchased from Shanghai Dibai Biotechnology Co., Ltd., with the batch number HH06. Both the test compounds and the control compound were prepared into 10 mM stock solutions using DMSO. Phosphate buffered saline (PBS), with pH of 4.0 and 7.4, was used to test the solubility of the test compounds.
Treatment of test compound and control compound: 30 μL of test compound or control compound stock solution (10 mM) per well was added in a specially made solubility sample plate, and then 970 μL of PBS with different pH was added to each well (pH was 4.0 and 7.4, respectively). Repeated wells were set in the test. A stir bar was added to each well that was covered with a polytetrafluoroethylene or silica gel plug. Stirring was performed at 25° C. at 1100 rpm for 2 hours. 10 μL of sample was taken from each well, and then 990 μL of water and acetonitrile mixture (including internal standard substance) was added to mix well, followed by filtering with a filter plate.
Standard treatment: 10 mM stock solution was diluted with DMSO to 300 μM, then 10 μL of compound diluent was taken, and 990 μL of water and acetonitrile mixture (including internal standard substance) was added to mix well and formulated into a standard solution with the final concentration 3 μM.
The solubility sample plate was placed in the autosampler and the LC-MS/MS method was used for analysis. The concentration of the test compound was calculated by the response value of the test compound and standard, and the concentration of the standard.

NASH mice = assay: Efficacy on non-alcoholic steatohepatitis (NASH) mice fed high-fat feed; assay type: in vivo, C57BL/6 mice; conditions: for Liver coefficient (liver weight/body weight) / Liver weight: 28 days; for Liver weight: X ± SD
Method: The test compounds were 4 and 7, respectively; the positive control silymarin was purchased from Shanghai Dibai Biotechnology Co., Ltd., with the batch number HH06.
Low-dose group (35 mg/kg) solution preparation: the quantitative test compound was precisely weighed and a certain amount of normal saline was added to prepare the oral suspension solution with the concentration of 3.5 mg/mL. The administration volume was 10 mL/kg.
High-dose group (70 mg/kg) solution preparation: the quantitative test compound was precisely weighed and a certain amount of normal saline was added to prepare the oral suspension solution with the concentration of 7.0 mg/mL. The administration volume was 10 mL/kg.
High-fat feed: basic feed ingredients were corn, flour, imported fish meal, soybean meal, secondary meal, yeast meal, soybean oil, etc. The high-fat feed was prepared from 73.6% basic feed with 10% lard, 10% egg yolk powder, 5% sucrose, 1.2% cholesterol and 0.2% pig bile salt.
Source, species, strain: C57BL/6 mice, provided by Beijing Vital River Laboratory Animal Technology Co., Ltd. Nanjing Branch (experimental animal production license: SCXK (Su) 2016-0003); experimental animal use license: SYXK (Jun) 2012-0049; age: 6-8 weeks at the beginning of dosing; weight: 18-22 g; gender: half male and half female.
After 3 days of adaptive feeding with normal feed, the mice were randomly assigned according to body weight: 8 mice were fed with normal feed and set as normal control (NC); the rest of mice were fed with high-fat feed until the end of the experiment. The mice were weighed and recorded every 3 days. After feeding with high-fat diet for 56 days (8 weeks), blood samples were collected from the orbital vein of mice to detect the blood biochemical indexes to identify whether the modelling was successful.
After successful modeling, the mice in the high-fat feed group were randomly divided into 6 groups with 8 animals in each group, including model group, compound 4 low dose group, compound 4 high dose group, compound 7 low dose group, compound 7 high dose group and silymarin high-dose group. The mice in each group were administered intragastrically according to the animal's body weight every day for 28 consecutive days (4 weeks). At the same time, during the administration period, the mice in each administration group and model group continued to be fed with high-fat feed until the end of the experiment. The normal control group was administered the corresponding volume of normal saline.
On the last day of the experiment, the mice in each group were fasted for 8 hours, blood was taken from the orbit and the serum was separated and then stored at −20° C. After blood collection, the mice were sacrificed and the liver was quickly separated, weighed and stored in a refrigerator at −80° C. Serum samples and liver tissue samples were subjected to determinations of serum triglyceride (TG), serum total cholesterol (TC), serum high-density lipoprotein (HDL-C), serum low-density lipoprotein (LDL-C), serum alanine aminotransferase (ALT), serum aspartate aminotransferase (AST), serum tumor necrosis factor alpha (TNFα), liver triglycerides (TG), liver total cholesterol (TC), liver malondialdehyde (MDA), liver superoxide dismutase (SOD); in addition, some livers of mice in the blank control group, model group, compound 7 low-dose group and silymarin high-dose group were fixed in neutral formaldehyde fixed solution and then HE staining was performed to analyzed the pathological changes of liver tissue.

in vivo = conditions: both sexes, ICR, mouse, po
Method: The test compound was compound 7; the positive control silymarin was purchased from Shanghai Dibai Biotechnology Co., Ltd., with the batch number HH06. Immediately before use, the suspension was prepared with normal saline and ultrasound to prepare a suspension with a corresponding concentration.
Low-dose group (1.5 g/kg) solution preparation: the quantitative test compound 7 or positive control compound was precisely weighed, and a certain amount of normal saline was added to prepare the oral suspension solution with the concentration of 75 mg/mL. The administration volume was 20 mL/kg.
High-dose group (3.0 g/kg) solution preparation: the quantitative test compound 7 or positive control compound was precisely weighed, and a certain amount of normal saline was added to prepare the oral suspension solution with the concentration of 150 mg/mL. The administration volume was 20 mL/kg.
ICR mice, SPF grade, weight: 16-18 g, 6-8 weeks old. Provided by Nantong University, laboratory animal production license number: SCXK (Su) 2014-0001; laboratory animal use license: SYXK (Su) 2017-0007.
16 ICR mice were randomly divided into compound 7 low-dose group, compound 7 high-dose group, silymarin low-dose group and silymarin high-dose group, with 4 mice in each group, half male and half female. […]

In the case of `COc1cc(C2Oc3cc(C4Oc5cc(O)cc(O)c5CC4O)cc(O)c3OC2CO)ccc1O` (centres unmarked) [Compound 7, 2-{8-hydroxy-3-(4-hydroxy-3-methoxyphenyl)-2-hydroxymethyl-2,3-dihydrobenzo[b][1,4]dioxan-6-yl}chroman-3,5,7-triol], the solubility at 2 h ([1]; PBS pH = 4.0, 25° C.) is reported as 209 µM (≈ 101 µg/mL), the solubility at 2 h ([1]; PBS pH = 7.4, 25° C.) is reported as 214 µM (≈ 104 µg/mL) and the “Solubility in PBS buffer solution compared with silymarin (in words)” value ([1]; pH 4.0 and 7.4) is reported as “significantly higher than that of silymarin”. The TG (NASH mice; 35 mg/kg/day) was 1.22 ± 0.06 mmol/L, the “Liver coefficient (liver weight/body weight)” value (NASH mice; 35 mg/kg/day intragastric) was 4.53 ± 0.38 % and the Liver weight (NASH mice; 35 mg/kg/day intragastric) was 1.40 ± 0.05 g. The TG (NASH mice; 70 mg/kg/day) was 1.25 ± 0.06 mmol/L, the “Liver coefficient (liver weight/body weight)” value (NASH mice; 70 mg/kg/day intragastric) was 4.51 ± 0.28 % and the Liver weight (NASH mice; 70 mg/kg/day intragastric) was 1.41 ± 0.02 g. The “Therapeutic effect on non-alcoholic steatohepatitis in mice (in words)” value (NASH mice; 35 and 70 mg/kg) was “significant therapeutic effects”, the MDA (NASH mice; liver, 35 mg/kg/day) was 2.84 ± 0.24 nmol/mg and the SOD (NASH mice; liver, 35 mg/kg/day) was 18.54 ± 4.41 U/mg. It also gave a TC (NASH mice; liver, 35 mg/kg/day) of 1.53 ± 0.06 mmol/L, an MDA (NASH mice; liver, 70 mg/kg/day) of 2.79 ± 0.21 nmol/mg and an SOD (NASH mice; liver, 70 mg/kg/day) of 19.44 ± 3.11 U/mg. For the same molecule, the TC (NASH mice; liver, 70 mg/kg/day) was 1.54 ± 0.09 mmol/L, the “Liver histopathology (HE staining)” value (NASH mice; low-dose group (35 mg/kg)) was “no lipid droplet vacuoles caused by steatosis” and the ALT (NASH mice; serum, 35 mg/kg/day) was 63.03 ± 30.59 U/L. It also gave an AST (NASH mice; serum, 35 mg/kg/day) of 115.16 ± 13.42 U/L, an HDL-C (NASH mice; serum, 35 mg/kg/day) of 0.83 ± 0.35 mmol/L and an LDL-C (NASH mice; serum, 35 mg/kg/day) of 1.95 ± 0.50 mmol/L. For the same molecule, the TC (NASH mice; serum, 35 mg/kg/day) was 2.59 ± 0.38 mmol/L, the TG (NASH mice; serum, 35 mg/kg/day) was 1.13 ± 0.06 mmol/L and the TNF-α (NASH mice; serum, 35 mg/kg/day) was 414.26 ± 11.57 ng/L. It also gave an ALT (NASH mice; serum, 70 mg/kg/day) of 75.75 ± 27.48 U/L, an AST (NASH mice; serum, 70 mg/kg/day) of 123.61 ± 5.41 U/L and an HDL-C (NASH mice; serum, 70 mg/kg/day) of 0.89 ± 0.46 mmol/L. For the same molecule, the LDL-C (NASH mice; serum, 70 mg/kg/day) was 1.85 ± 0.37 mmol/L, the TC (NASH mice; serum, 70 mg/kg/day) was 2.63 ± 0.81 mmol/L and the TG (NASH mice; serum, 70 mg/kg/day) was 1.11 ± 0.07 mmol/L. For the same molecule, the TNF-α (NASH mice; serum, 70 mg/kg/day) was 425.80 ± 9.77 ng/L and the MTD at 14 days (in vivo) was 3000 mg/kg.
